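Cells were grown in 96-well plates and exposed to each compound for 48 hours at five concentrations; endpoints were interpolated linearly between bracketing concentrations, or set to the highest concentration if not reached. GI50: concentration for 50% inhibition of growth. At the TGI there is no net growth.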
Tests used:
Experiment in all cases: NCI anticancer screen, dose series, 48 h
HOP-92 NSCLC = test system: HOP-92 NSCLC
HT29 colon = test system: HT29 colon
MDA-MB-435 = test system: MDA-MB-435
PC-3 prostate = test system: PC-3 prostate
RXF 393 renal = test system: RXF 393 renal
DLD-1 colon = test system: DLD-1 colon
DMS 273 small cell lung = test system: DMS 273 small cell lung
KM20L2 colon = test system: KM20L2 colon
LXFL 529 NSCLC = test system: LXFL 529 NSCLC
M19-MEL melanoma = test system: M19-MEL melanoma
SNB-78 CNS = test system: SNB-78 CNS
XF 498 CNS = test system: XF 498 CNS
DMS 114 small cell lung = test system: DMS 114 small cell lung

Structure (SMILES) | TGI (HOP-92 NSCLC) [µM] | TGI (HT29 colon) [µM] | TGI (MDA-MB-435) [µM] | TGI (PC-3 prostate) [µM] | TGI (RXF 393 renal) [µM] | also measured
COc1c(C)c(C/C=C(\C)CCCCO[Si](C(C)C)(C(C)C)C(C)C)c(OC)c2ccccc12 | > 100 | > 100 | > 100 | > 100 | > 100 | –
O=C1/C(=C\c2ccc(Cl)cc2Cl)Sc2scc(-c3cccc([N+](=O)[O-])c3)[n+]21 | 18.3 | 10.9 | 27.8 | 33.1 | 14.6 | –
COc1ccccc1C1SCC(=O)N1c1ccc(-n2c(-c3ccccc3)nc3ccccc3c2=O)cc1 (stereo not given) | > 100 | > 100 | > 100 | > 100 | – | –
OCC(CN1CCCCC1)(CN1CCCCC1)CN1CCCCC1 | > 100 | > 100 | > 100 | > 100 | > 100 | –
C/C=C/c1c(O)c(=O)c2c(OC)cc(OC)c3c4c(OC)cc(OC)c5c(=O)c(O)c(/C=C/C)c(c1c23)c54 | 35.5 | 23.8 | 26.1 | 19.8 | – | –
CNC(=O)CN(CC(=O)NC)C(=O)NC | > 100 | > 100 | – | – | > 100 | TGI (DLD-1 colon): > 100 µM; TGI (DMS 273 small cell lung): > 100 µM; TGI (KM20L2 colon): > 100 µM; TGI (LXFL 529 NSCLC): > 100 µM; TGI (M19-MEL melanoma): > 100 µM; TGI (SNB-78 CNS): > 100 µM; TGI (XF 498 CNS): > 100 µM
CSC1=C(C(=O)Nc2ccc(Cl)cc2)C(N)=NC1=O | – | > 100 | > 100 | > 100 | > 100 | –
COc1cc(N(CCC#N)CCC#N)ccc1/C=C1\SC(=S)NC1=O | > 100 | > 100 | > 100 | > 100 | > 100 | –
COC(=O)/C=C/c1ccc2c(c1)CCC2 | 46.7 | > 100 | > 100 | > 100 | > 100 | –
CN(NC(=O)c1ccco1)C1=NCCN1 | > 100 | > 100 | > 100 | > 100 | > 100 | –
COc1cc(OC)cc(Oc2nc3ccccc3nc2C(=O)O)c1 | > 100 | > 100 | > 100 | > 100 | > 100 | –
CCN(CC)CC(=O)Nc1c(C(N)=O)nnn1Cc1cc(Cl)c(C(=O)c2ccc(Cl)cc2)c(Cl)c1 | 53.2 | 38.6 | 37.2 | 38.7 | 23.8 | –
CC(=O)C1C(=O)C(=O)N(c2cccc(C)c2C)C1=O (stereo not given) | > 100 | > 100 | – | > 100 | – | –
Cc1ccccc1C1CC(=O)CC(c2ccccc2C)C12C(=O)NC(=O)NC2=O (stereo not given) | > 100 | > 100 | > 100 | > 100 | > 100 | –
Cc1ccc(S(=O)(=O)N2CC3OC(C)(C)OC3C2CO)cc1 (stereo not given) | > 100 | > 100 | > 100 | > 100 | > 100 | –
O=C(Nc1cc(C(=O)Nc2cccc(S(=O)(=O)O)c2)cc(C(=O)Nc2cccc(S(=O)(=O)O)c2)c1)c1cccc(C(=O)Nc2cc(C(=O)Nc3cccc(S(=O)(=O)O)c3)cc(C(=O)Nc3cccc(S(=O)(=O)O)c3)c2)c1 | – | > 100 | > 100 | > 100 | > 100 | –

Structure (SMILES) | TGI (HOP-92 NSCLC) [µM] | TGI (HT29 colon) [µM] | TGI (MDA-MB-435) [µM] | TGI (PC-3 prostate) [µM] | TGI (RXF 393 renal) [µM] | also measured
COc1cccc(-c2cc(=O)c3cc(OC)c(OC)cc3[nH]2)c1 | – | > 100 | – | – | > 100 | TGI (DLD-1 colon): > 100 µM; GI50 (DMS 114 small cell lung): 54.4 µM; TGI (DMS 114 small cell lung): > 100 µM; TGI (DMS 273 small cell lung): > 100 µM; TGI (KM20L2 colon): > 100 µM; TGI (LXFL 529 NSCLC): > 100 µM; TGI (M19-MEL melanoma): > 100 µM; GI50 (RXF 393 renal): 33.3 µM; TGI (SNB-78 CNS): > 100 µM
COc1ccc2cc(C(C)C(O)c3cc(F)c(F)c(F)c3F)ccc2c1 (stereo not given) | > 100 | > 100 | > 100 | > 100 | – | –
CCOC(=O)c1c(N)nn2c1cc1cccccc12 | 95.8 | > 100 | > 100 | 53.7 | > 100 | –
CCCCON1C[C@@H](O)C(O)[C@@H](O)C1 (stereo not given in full) | > 100 | > 100 | > 100 | > 100 | > 100 | –
Cc1ccc([N+](=O)[O-])c2c(NCCNC(=O)Cn3ccnc3[N+](=O)[O-])ccnc12 | 78.1 | > 100 | > 100 | > 100 | 16.5 | –
C[C@H]1O[C@@H](c2c(O)ccc3ccccc23)C[C@@H](N(C)C)C1O (stereo not given in full) | > 100 | > 100 | > 100 | > 100 | 77.3 | –
CC1(c2ccc(F)cc2)CC(c2ccc(F)cc2)=C(C#N)C(=C(C#N)C#N)N1 (stereo not given) | 34.9 | 32.1 | 32 | 31.4 | 28.3 | –
COC(OC)C1OC(CO)C(n2cc(C)c(=O)[nH]c2=O)C1O (stereo not given) | > 100 | > 100 | > 100 | > 100 | > 100 | –
O=[N+]([O-])C(Cl)C(Cl)C(Cl)=C(Cl)Cl (stereo not given) | – | 36.4 | 56.7 | > 57.4 | 33.7 | –
C=CCCCC1CCCNC1=O (stereo not given) | > 100 | > 100 | > 100 | > 100 | > 100 | –
O=c1cc(-c2ccccc2)[nH]c2cc(F)c(F)cc12 | > 100 | > 46.4 | – | > 100 | 0.616 | –
CC(C)(C)OC(=O)N(O)[C@@H]1C=C[C@H](n2cnc3c(N)ncnc32)C1 | > 100 | – | > 100 | > 100 | > 100 | –
CC(C)=CCC[C@@H](C)C1=C(O)C(Nc2ccccc2Br)=C(C)C(=O)C1=O | 30.8 | 37 | > 65.7 | 38.6 | 32.9 | –
C=CC(Cl)(CBr)CCC(Br)=C(C)C (stereo not given) | 35.2 | 39.8 | 46.7 | 52.7 | 38.5 | –
CC(C)/C(Cl)=N\OC(=O)Nc1cccc(F)c1 | 4.69 | 43.6 | – | 30.2 | 31 | –

— PubChem BioAssay (NCI)
